According to patent US8436023B2, “Cyclohexyl-azetidinyl antagonists of CCR2” (Janssen Pharmaceutica N.V., priority 2010, dated 2013):

target: T1, CCR2 (Homo sapiens, UniProt P41597); assay: MCP-1 Receptor Binding Assay in THP-1 Cells; conditions: 0.5 nM 125I labeled MCP-1, 2 hours at 30° C., less polar isomer tested where stated, read-out: Inhibition of MCP-1 Binding IC50, CCR2 Binding
T1 construct: host or cells: THP-1 human monocytic cells
T1 sequence (P41597 1-360 isoform P41597-2): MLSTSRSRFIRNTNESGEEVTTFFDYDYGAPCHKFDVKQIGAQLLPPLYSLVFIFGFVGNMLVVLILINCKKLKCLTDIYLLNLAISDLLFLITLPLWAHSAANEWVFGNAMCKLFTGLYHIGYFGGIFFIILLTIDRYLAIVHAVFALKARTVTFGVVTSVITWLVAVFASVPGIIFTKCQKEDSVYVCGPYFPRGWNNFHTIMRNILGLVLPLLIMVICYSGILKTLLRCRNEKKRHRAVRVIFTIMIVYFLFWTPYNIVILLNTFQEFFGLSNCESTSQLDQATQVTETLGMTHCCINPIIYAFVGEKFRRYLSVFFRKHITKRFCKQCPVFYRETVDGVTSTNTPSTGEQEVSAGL
Summary of the method: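 Whole THP-1 cells incubated 2 h at 30 °C with 0.5 nM 125I-MCP-1 and varying concentrations of test compound; bound radioactivity counted after filter harvesting. Where no IC50 obtained, % inhibition given at 25 μM.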

IC50 [nM] | Structure (SMILES)
1100 | Cc1ccc(C2(O)CCC(N3CC(NC(=O)CNc4nn(C)c5ccc(OCC(F)(F)F)cc45)C3)CC2)cn1 (stereo not shown) [Example 101]
33 | COc1ccc(C2(O)CCC(N3CC(NC(=O)CNc4nn(C)c5ccc(C(F)(OC)C(F)(F)F)cc45)C3)CC2)cn1 (stereo not shown) [Example 102, N-{1-[4-Hydroxy-4-(6-methoxy-pyridin-3-yl)-cyclohexyl]-azetidin-3-yl}-2-[1-methyl-5-(1,2,2,2-tetrafluoro-1-methoxy-ethyl)-1H-indazol-3-ylamino]-acetamide]
22 | COC(F)(c1ccc2c(c1)c(NCC(=O)NC1CN(C3CCC(O)(c4ccc(C)nc4)CC3)C1)nn2C)C(F)(F)F (stereo not shown) [Example 103, N-{1-[4-Hydroxy-4-(6-methyl-pyridin-3-yl)-cyclohexyl]-azetidin-3-yl}-2-[1-methyl-5-(1,2,2,2-tetrafluoro-1-methoxy-ethyl)-1H-indazol-3-ylamino]-acetamide]
230 | O=C(CNc1n[nH]c2ccc(C(F)(F)F)nc12)NC1CN([C@H]2CC[C@@](O)(c3cncs3)CC2)C1 [Example 104, N-(1-((1R,4R)-4-hydroxy-4-(thiazol-5-yl)cyclohexyl)azetidin-3-yl)-2-((5-(trifluoromethyl)-1H-pyrazolo[4,3-b]pyridin-3-yl)amino)acetamide]
